The record followed here is patent publication US20250122219A1 (priority 2023, published 2025).

Converted amounts (≈) assume the structure as drawn. Where only a bound is given, the exact number is not on record here.

One series has as its system HIV-1 (IIIB). In words: Antiviral assay in MT-4 cells. As to conditions: Human immunodeficiency virus 1, MT4, 120 h; HIV-1 IIIB in MT-4 cells, 5 days incubation, Cell Titer Glo; read-out: MT4 EC50. The class given is cell-based. In a few lines: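 HIV-1 IIIB-infected MT-4 cells (fresh 1:250 virus stock dilution; mock-infected controls) incubated 5 days at 37 °C with serially diluted compounds in RPMI/10% FBS; 5 μM AZT as positive control. Cell viability read by CellTiter-Glo luminescence as measure of protection from viral replication.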
In general terms: In ATP-based viability assays light output follows the ATP content of the culture.

A short description of another series: physchem. The class given is physicochemical. The following applies: ambient temperature, 5 mg/mL dose concentration; for solubility thermodynamic at 24 h / solubility thermodynamic: 23 °C, thermodynamic from solid; for solubility thermodynamic at 24 h: FaSSIF; for solubility thermodynamic: aqueous buffer; for Thermodynamic PBS Solubility (mg/mL) / solubility thermodynamic: PBS. The protocol: Approximately 7 mg of each test compound as a dry powder was placed in a vial. Aliquots were weighed out for each assay media at 2 hour and 24 hour time points, to be analyzed. The appropriate buffer (FaSSIF or PBS) was added to each vial such that the final dose concentration of 5 mg/mL was achieved. […] The plate was sealed with a pierceable heat seal and analyzed by HPLC-UV.
A system QC (0.01 mg/mL Caffeine in DMSO) was injected every 12-15 injections. […] Results are reported using data obtained at 280 nm. The resulting peak areas were plotted against the known concentrations from the calibration and the filtrates are quantified with respect to the linear regression using Agilent OpenLab Intelligent Reporting Software. The results are reported electronically in mg/mL.

Series [1] can be described thus: Cytotoxicity assay in MT-4 cells. Type of series: cell-based. As to conditions: human; uninfected MT-4 cells, 5 days incubation, Cell Titer Glo; read-out: MT4 CC50. In a few lines:
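Uninfected MT-4 cells exposed to serially diluted compounds in RPMI with 10% FBS for 5 days at 37 °C. Viability by Cell Titer Glo chemiluminescence. Puromycin […] as baseline cytotoxicity control.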

What is called EC50 is the concentration that produces a half-maximal response. Usually thermodynamic solubility stands for the concentration in solution at equilibrium with solid. By CC50 is commonly meant the concentration giving 50% cytotoxicity. As for `COC(=O)OCOc1c2n(cc(C(=O)NCc3ccc(F)cc3F)c1=O)[C@@H]1CN(C2=O)[C@@H](C)CC[C@]12CC(C)=NO2` [Example 12, (((3′S,5S,7′R)-10′-((2,4-difluorobenzyl)carbamoyl)-3,3′-dimethyl-1′,11′-dioxo-1′,4′,5′,11′-tetrahydro-3′H,4H,7′H-spiro[isoxazole-5,6′-[2,7]methanopyrido[1,2-a][1,4]diazonin]-12′-yl)oxy)methyl methyl carbonate], the concentration giving a half-maximal response (EC50) in the series on HIV-1 (IIIB) turned out to be 3.81 nM. The same compound yielded a thermodynamic solubility at 24 h in “physchem” of 30 µg/mL (≈ 52.2 µM). Moreover, the half-maximal cytotoxic concentration (CC50) at 5 days in series [1] is 25900 nM.

As to `CCCCCCCCCCCCCCCCCC(=O)Oc1c2n(cc(C(=O)NCc3ccc(F)cc3F)c1=O)[C@@H]1CN(C2=O)[C@@H](C)CC[C@]12CC(C)=NO2` [Example 15, (3′S,5S,7′R)-10′-((2,4-difluorobenzyl)carbamoyl)-3,3′-dimethyl-1′,11′-dioxo-1′,4′,5′,11′-tetrahydro-3′H,4H,7′H-spiro[isoxazole-5,6′-[2,7]methanopyrido[1,2-a][1,4]diazonin]-12′-yl stearate], in the series with HIV-1 (IIIB), the EC50 is 6.36 nM. In addition, the “Thermodynamic PBS Solubility (mg/mL)” value in the series “physchem” is “<LOD”. Also, the half-maximal cytotoxic concentration (CC50) at 5 days in series [1] was ≥ 50000 nM.

With `CC(=O)Oc1c2n(cc(C(=O)NCc3ccc(F)cc3F)c1=O)[C@@H]1CN(C2=O)[C@@H](C)CC[C@]12CC(C)=NO2` [Example 16, (3′S,5S,7′R)-10′-((2,4-difluorobenzyl)carbamoyl)-3,3′-dimethyl-1′,11′-dioxo-1′,4′,5′,11′-tetrahydro-3′H,4H,7′H-spiro[isoxazole-5,6′-[2,7]methanopyrido[1,2-a][1,4]diazonin]-12′-yl acetate], the EC50 in the series with HIV-1 (IIIB) is 1.3 nM. In the series “physchem”, this compound returned a solubility (thermodynamic) of 372 µg/mL and a solubility (thermodynamic) at 24 h of 270 µg/mL. Also, the CC50 at 5 days in series [1] was 11200 nM.

Consider `CCCCC(=O)Oc1c2n(cc(C(=O)NCc3ccc(F)cc3F)c1=O)[C@@H]1CN(C2=O)[C@@H](C)CC[C@]12CC(C)=NO2` [Example 17, (3′S,5S,7′R)-10′-((2,4-difluorobenzyl)carbamoyl)-3,3′-dimethyl-1′,11′-dioxo-1′,4′,5′,11′-tetrahydro-3′H,4H,7′H-spiro[isoxazole-5,6′-[2,7]methanopyrido[1,2-a][1,4]diazonin]-12′-yl pentanoate], for which, in the series on HIV-1 (IIIB), the EC50 came to 1.28 nM. Moreover, in the series “physchem”, the “Thermodynamic PBS Solubility (mg/mL)” value is “<LOD”. Also, the 50% cytotoxic concentration (CC50) at 5 days in series [1] amounted to 10200 nM.

Regarding `CC1=NO[C@@]2(CC[C@H](C)N3C[C@H]2n2cc(C(=O)NCc4ccc(F)cc4F)c(=O)c(OC(=O)C(C)(C)C)c2C3=O)C1` [Example 19, (3′S,5S,7′R)-10′-((2,4-difluorobenzyl)carbamoyl)-3,3′-dimethyl-1′,11′-dioxo-1′,4′,5′,11′-tetrahydro-3′H,4H,7′H-spiro[isoxazole-5,6′-[2,7]methanopyrido[1,2-a][1,4]diazonin]-12′-yl pivalate], in the series with HIV-1 (IIIB), the concentration for a half-maximal effect (EC50) came to 1.53 nM. The same compound registered a solubility (thermodynamic) at 24 h in “physchem” of 83 µg/mL (≈ 145 µM). For the same compound, the CC50 at 5 days in series [1] came to 12300 nM.

Take `CC1=NO[C@@]2(CC[C@H](C)N3C[C@H]2n2cc(C(=O)NCc4ccc(F)cc4F)c(=O)c(OC(=O)OC(C)C)c2C3=O)C1` [Example 22, (3′S,5S,7′R)-10′-((2,4-difluorobenzyl)carbamoyl)-3,3′-dimethyl-1′,11′-dioxo-1′,4′,5′,11′-tetrahydro-3′H,4H,7′H-spiro[isoxazole-5,6′-[2,7]methanopyrido[1,2-a][1,4]diazonin]-12′-yl isopropyl carbonate]: the EC50 in the series on HIV-1 (IIIB) is 0.992 nM. In the series “physchem”, this compound displayed a thermodynamic solubility of 34 µg/mL (≈ 59.4 µM) and a solubility (thermodynamic) at 24 h of 70 µg/mL (≈ 122 µM). Moreover, the CC50 at 5 days in series [1] worked out at 12500 nM.
